# Patent US12329852B2, “Sustained-release 9-cis retinoic acid implantable drug delivery pellets for the prevention of postsurgical edema and lymphedema” (UNIVERSITY OF SOUTHERN CALIFORNIA, priority 2019, dated 2025)
# Entries after “also recorded” stand apart in the source; their conditions may differ.
# Columns and labels:
# hind limb lymphedema [1] = experiment: Hind limb lymphedema model, paw thickness (implantable pellet); assay type: in vivo, mouse; settings: for paw swelling, mean difference compared to control animals: implantable pellet 100 μg 9-cis RA, 30-day release
# Description: All experiments were performed in accordance with the statutes from The Guide for the Care and Use of Laboratory Animals (National Research Council, 8th ed, 2011), the Animal Welfare Act, and other Federal regulations. The was approved by the University of Southern California Institutional Animal Care and Use Committee. Male and female Prox-1 green fluorescent protein (GFP) transgenic mice, 12-16 weeks old, weighing 20-30 g were bred within the University of Southern California animal facility. This GFP-expressing lymphatic reporter mouse was used because it conveniently allowed for the visualization of lymphatic vessels and other Prox1-expressing tissue under fluorescence microscopy, and facilitated the immunohistochemical staining of lymphatic vessels using anti-GFP primary antibody.
# Under isoflurane-inhaled anesthesia, the lymphatic injury protocol was used on all experimental mice to induce hind limb lymphedema. This consisted of hind limb lymph node dissection followed by adjuvant radiation therapy. Using a dissecting microscope, a circumferential intradermal incision was made around the thigh, after which the ipsilateral inguinal fat pad, containing the inguinal lymph nodes, and ipsilateral popliteal lymph node were removed, as previously described. Visualization of the inguinal and popliteal lymphatics was facilitated by the injection of methylene blue dye on the dorsum of the paw and by the use of a green fluorescent microscope. Skin sutures were placed in 7-8 mm gaps to reinforce discontinuity of dermal lymphatics. The surgical area was then irradiated using a clinically relevant dose of 27.5 Gy radiation delivered by an XRad 320 device over a period of 5 days (550 cGy per day), which is the human equivalent dose for mouse.
# Pellets were placed within the surgical wound intraoperatively and sutured in place to the adductor muscles of the thigh. Treatment pellets were custom-manufactured by Innovative Research of America (Sarasota, FL) to contain 100 μg of 9-cis RA, released over a period of 30 days using a matrix-driven delivery system. The carrier-binder excipients of the pellet matrix were synthetic and non-toxic, and included cholesterol, lactose, celluloses, phosphates, and stearates.
# Prior to surgery, all animals were sex-, age-, and weight-matched to eliminate confounding variables. Paw thickness, the primary outcome, was measured weekly using electronic calipers for a total of 6 weeks. Paw thickness was normalized for each animal by calculating percent change relative to the unaffected paw. Hind limbs were photographed using a Nikon D5000 digital SLR flash camera using fixed distances, focal length, background, and positioning.
# hind limb lymphedema [2] = experiment: ICG lymphography of hind limb, lymphatic clearance (implantable pellet); assay type: in vivo, mouse; settings: postoperative week 6, 3 to 144 hours after ICG injection
# Description: At postoperative week 6, lymphatic clearance was measured using indocyanine green (ICG) lymphography to compare lymphatic function between the treatment and placebo groups. After inducing anesthesia via isoflurane inhalation, a sub-microliter injection system syringe was used to intradermally inject 2 uL of ICG on the dorsal aspect of the second and fifth paw digits. ICG lymphography images were recorded at 1, 3, 6, 12, 24, 48, 72, 96, and 144 hours post-injection. The fluorescence intensity of the lymphography images was quantified at each post-injection time point using ImageJ pixel intensity analysis (National Institutes of Health, Bethesda, MD).
# Indocyanine green (ICG) lymphography is a well-established procedure used in clinics by healthcare providers to visualize lymphatic vessels in real-time for the purposes of diagnosis or preoperative planning. When ICG is injected intradermally, it is preferentially picked up and cleared by the lymphatic system. This imaging modality provides rapid visualization of lymphatic vessels and measures lymphatic clearance, acting as a surrogate for lymphatic function. […] Thus, at postoperative week 6 and prior to euthanasia, lymphatic clearance were monitored by quantifying the change in dermal fluorescence of mouse hind limbs injected with ICG.
# tail lymphedema [3] = experiment: Mouse tail secondary lymphedema model, tail volume (intraperitoneal injection); assay type: in vivo, BALB/c mice
# Description: All experiments were performed in accordance with the The Guide for the Care and Use of Laboratory Animals (National Research Council, 8th ed, 2011) and the Animal Welfare Act. Our protocol was approved by the University of Southern California Institutional Animal Care and Use Committee. Fifty adult BALB/c mice, 12 to 14 weeks old, weighing between 21 and 30 g were purchased from Jackson Laboratories (Jackson, Bar Harbor, ME). Animals were maintained in a temperature and light-controlled environment with ad libitum access to a normal chow diet and water.
# A previously well described tail model to induce lymphedema was modified in the present experiments. Mice were anesthetized using 2.5% isofluorane, and a 5-mm wide circumferential skin excision was made 20-mm from the base of the tail. Underlying lymphatic vessels were visualized using isosulfan blue and ligated under a dissecting surgical microscope. Daily bacitracin antibiotic ointment was applied to the surgical site to prevent wound infection and desiccation.
# Animals were randomly assigned to one of five groups following surgery: control, 7 days, 14 days, 45 days, and delay. Mice received daily intraperitoneal injections of either 100 μL vehicle solution (90 μL sunflower seed oil/10 μL 100% ethanol) or 0.08 mg/kg 9-cis RA dissolved in 100 μL of vehicle solution [5]. The treatment administered to each group was: (1) control: vehicle for 45 days following surgery, (2) 7 day: 9-cis RA for 7 days, (3) 14 day: 9-cis RA for 14 days, (4) 45 day: 9-cis RA for 45 days, and (5) delay: 9-cis RA for 7 days beginning one week after surgery. Animals with necrotic tails or that developed surgical site infections were sacrificed and excluded from analysis.
# Animals were photographed every five days for a 6-week duration, and tail diameter was measured using ImageJ (National Institutes of Health, Bethesda, MD). Measurements were taken at 5-mm intervals from the distal-most edge of the wound for a total of seven measurements per animal for every time point. Total distal tail volume was calculated using the truncated cone formula [8]. Percent change in distal tail volume was recorded, analyzed, and plotted using GraphPad Prism 7 (GraphPad Software, Inc.).
# tail lymphedema [4] = experiment: Oral administration, tail lymphedema, lymphatic clearance; assay type: in vivo, BALB/c mice; settings: oral gavage for 6 weeks
# Description: Oral administration experiments were performed on 30 adult BALB/c mice, 12 to 14 weeks old, and weighing between 21 and 30 g. Surgical excision of lymphatic vessels at 20-mm from the base of the tail was performed in order to induce secondary lymphedema. Mice receive 9-cis RA dissolved in sunflower oil via oral gavage for 6 weeks in accordance to the dosing regimes in Table 3.
structure (smiles),measurement,setting,value
"CC1=C(/C=C/C(C)=C\C=C\C(C)=C\C(=O)O)C(C)(C)CCC1 [9-cis RA, 9-cis retinoic acid]","paw swelling, mean difference compared to control animals",hind limb lymphedema [1]; postoperative week 3,7%
same,"paw swelling, mean difference compared to control animals",hind limb lymphedema [1]; postoperative week 4,12%
same,"paw swelling, mean difference compared to control animals",hind limb lymphedema [1]; postoperative week 5,9%
same,"paw swelling, mean difference compared to control animals",hind limb lymphedema [1]; postoperative week 6,11%
same,change in paw swelling/thickness within the treatment group over time,"hind limb lymphedema [1]; implantable pellet, between time points over 6 weeks",no significant differences in paw swelling are observed between time points
same,lymphatic drainage as change in ICG fluorescence compared to control,hind limb lymphedema [2],significantly faster lymphatic drainage
same,tail volume compared to control,tail lymphedema [3]; 0.08 mg/kg daily i.p. for 7 days,approached tail volumes similar to the lymphedematous control group past the 4-week time point; also recorded: no significant effect on tail lymphedema or dermal thickening
same,tail volume compared to control,tail lymphedema [3]; 0.08 mg/kg daily i.p. for 7 days beginning one week after surgery (delay group),statistically significant decrease in tail volumes from day-14 onwards; also recorded: decreased tail volume
same,tail volume compared to control,tail lymphedema [3]; 0.08 mg/kg daily i.p. for 14 days,approached tail volumes similar to the lymphedematous control group past the 4-week time point; also recorded: no significant difference in tail volume
same,tail volume compared to control,"tail lymphedema [3]; 0.08 mg/kg daily i.p., continuous (45-day/42-day group)",significantly smaller than the lymphedematous controls
same,lymphatic clearance,tail lymphedema [4]; high dose 30 mg/kg,improves lymphatic clearance
same,lymphatic clearance,tail lymphedema [4]; low dose 10 mg/kg,improves lymphatic clearance
